Test results as given in patent US20100029615A1, “BENZIMIDAZOLE DERIVATIVES” (priority 2006, published 2010).
Where a name gives a salt, the structure may show the parent alone.

The molecules below were run against T1, SMO (Mus musculus, UniProt P56726) (assay: Smoothened (SMO)/Sonic Hedgehog (SHh) Transient Transcriptional Activation Assay (Gli-luciferase reporter in C3H10T1/2 cells)). Conditions: 2 μM test compound, SHh 250 ng/ml, 20 hrs.
T1 construct: endogenous in cells; host or cells: C3H10T1/2 (ATCC #CCL-226)
T1 sequence (P56726 33-793): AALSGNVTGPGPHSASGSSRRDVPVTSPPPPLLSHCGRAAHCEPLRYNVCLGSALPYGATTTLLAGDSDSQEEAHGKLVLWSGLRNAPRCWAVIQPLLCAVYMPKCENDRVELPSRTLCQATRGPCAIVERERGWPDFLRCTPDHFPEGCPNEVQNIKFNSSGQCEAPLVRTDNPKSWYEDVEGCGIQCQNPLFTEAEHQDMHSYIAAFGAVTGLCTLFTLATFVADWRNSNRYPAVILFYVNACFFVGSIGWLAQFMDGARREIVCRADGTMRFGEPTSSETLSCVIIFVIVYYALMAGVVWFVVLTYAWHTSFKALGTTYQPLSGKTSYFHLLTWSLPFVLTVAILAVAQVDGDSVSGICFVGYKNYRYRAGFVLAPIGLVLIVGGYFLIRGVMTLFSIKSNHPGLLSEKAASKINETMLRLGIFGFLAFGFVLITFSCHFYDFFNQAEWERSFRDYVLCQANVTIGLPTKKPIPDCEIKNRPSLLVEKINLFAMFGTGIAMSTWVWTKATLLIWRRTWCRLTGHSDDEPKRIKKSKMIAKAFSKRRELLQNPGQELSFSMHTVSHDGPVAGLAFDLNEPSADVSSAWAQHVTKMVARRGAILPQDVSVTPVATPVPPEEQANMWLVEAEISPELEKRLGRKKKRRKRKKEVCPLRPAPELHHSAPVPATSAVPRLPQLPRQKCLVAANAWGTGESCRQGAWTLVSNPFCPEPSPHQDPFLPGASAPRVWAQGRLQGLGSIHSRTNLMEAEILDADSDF
Format: cell-based, murine
In short: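 C3H10T1/2 cells transiently transfected with a 10× murine Gli-responsive firefly luciferase reporter plus pEGFP, serum-starved 20 h in 0.5% calf serum, then treated with compounds (2 uM–2 nM final) and 250 ng/ml recombinant human SHh for 20 h at 37 °C. Read-out: Dual-Glo luminescence.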
With `O=C(Cn1ccc2sccc2c1=O)NC1CCCC(c2nc3ccccc3[nH]2)C1` (stereo not drawn) [Example 128, N-[3-(1H-benzimidazol-2-yl)cyclohexyl]-2-(4-oxothieno[3,2-c]pyridin-5(4H)-yl)acetamide triflouroacetate] the “SMO CELL % INHIBITION @ 2 μM” value was 100%.
In the case of `O=C(NC1CCCC(c2nc3ccccc3[nH]2)C1)c1ccc2cc[nH]c2c1` (stereo not drawn) [Example 141, N-[3-(1H-benzimidazol-2-yl)cyclohexyl]-1H-indole-6-carboxamide triflouroacetate], the “SMO CELL % INHIBITION @ 2 μM” value is reported as 110%.

Same assay, conditions: C3H 10T1/2, 2 μM test compound, SHh 250 ng/ml, 20 hrs, read-out: SMO CELL % INHIBITION @ 2 μM
Molecule `CCCN1CCNC(=O)C1CC(=O)NC1CCCC(c2nc3ccccc3[nH]2)C1` (stereo not drawn) [Example 110, N-[3-(1H-benzimidazol-2-yl)cyclohexyl]-2-(3-oxo-1-propylpiperazin-2-yl)acetamide triflouroacetate] has an inhibition at 2 µM of 86%.
In the case of `Cc1cccc(=O)n1CC(=O)NC1CCCC(c2nc3ccccc3[nH]2)C1` (stereo not drawn) [Example 111, N-[3-(1H-benzimidazol-2-yl)cyclohexyl]-2-(6-methyl-2-oxopyridin-1(2H)-yl)acetamide triflouroacetate], the inhibition at 2 µM is reported as 103%.
In the case of `O=C(CN1CCCCCC1=O)NC1CCCC(c2nc3ccccc3[nH]2)C1` (stereo not drawn) [Example 112, N-[3-(1H-benzimidazol-2-yl)cyclohexyl]-2-(2-oxoazepan-1-yl)acetamide triflouroacetate], the inhibition at 2 µM is reported as 93%.
`CN1C[C@H](O)CC1C(=O)NC1CCCC(c2nc3ccccc3[nH]2)C1` (stereo partly drawn) [Example 113, (4R)-N-[3-(1H-benzimidazol-2-yl)cyclohexyl]-4-hydroxy-1-methyl-L-prolinamide triflouroacetate] showed an inhibition at 2 µM of 93%.
Work on `O=C(NC1CCCC(c2nc3ccccc3[nH]2)C1)c1cc(C2CC2)n[nH]1` (stereo not drawn) [Example 114] yielded an inhibition at 2 µM of 109%.
`Cn1cc(CC(=O)NC2CCCC(c3nc4ccccc4[nH]3)C2)c2ccccc21` (stereo not drawn) [Example 115, N-[3-(1H-benzimidazol-2-yl)cyclohexyl]-2-(1-methyl-1H-indol-3-yl)acetamide triflouroacetate] was tested, and the inhibition at 2 µM was 106%.
`Cc1cn2cc(CCC(=O)NC3CCCC(c4nc5ccccc5[nH]4)C3)nc2s1` (stereo not drawn) [Example 116, N-[3-(1H-benzimidazol-2-yl)cyclohexyl]-3-(2-methylimidazo[2,1-b][1,3]thiazol-6-yl)propanamide triflouroacetate] showed an inhibition at 2 µM of 91%.
For `O=C(CNC(=O)c1ccccc1)NC1CCCC(c2nc3ccccc3[nH]2)C1` (stereo not drawn) [Example 117, N-(2-{[3-(1H-benzimidazol-2-yl)cyclohexyl]amino}-2-oxoethyl)benz-amide triflouroacetate], the inhibition at 2 µM was 102%.
For `COc1ccc2cc(C(=O)NC3CCCC(c4nc5ccccc5[nH]4)C3)n(C)c2c1` (stereo not drawn) [Example 118, N-[3-(1H-benzimidazol-2-yl)cyclohexyl]-6-methoxy-1-methyl-1H-indole-2-carboxamide triflouroacetate], the inhibition at 2 µM was 83%.
`COc1cc(C(=O)NC2CCCC(c3nc4ccccc4[nH]3)C2)nc(OC)n1` (stereo not drawn) [Example 119, N-[3-(1H-benzimidazol-2-yl)cyclohexyl]-2,6-dimethoxypyr-imidine-4-carboxamide triflouroacetate] gave an inhibition at 2 µM of 75%.
In the case of `Cc1cc(C)n(CCC(=O)NC2CCCC(c3nc4ccccc4[nH]3)C2)n1` (stereo not drawn) [Example 120, N-[3-(1H-benzimidazol-2-yl)cyclohexyl]-3-(3,5-dimethyl-1H-pyrazol-1-yl)propanamide triflouroacetate], the inhibition at 2 µM is reported as 70%.
`O=C(NC1CCCC(c2nc3ccccc3[nH]2)C1)C1CCCO1` (stereo not drawn) [Example 121, N-[3-(1H-benzimidazol-2-yl)cyclohexyl] tetrahydrofuran-2-carboxamide triflouroacetate] gave an inhibition at 2 µM of 94%.
With `O=C(NC1CCCC(c2nc3ccccc3[nH]2)C1)c1cnn2c1CCCC2` (stereo not drawn) [Example 122, N-(3-(1H-benzo[d]imida-zol-2-yl)cyclohexyl)-4,5,6,7-tetrahydropyr-azolo[1,5-a]pyridine-3-carboxamide triflouroacetate] the inhibition at 2 µM was 92%.
`CC(=O)N[C@H](Cc1ccccc1)C(=O)NC1CCCC(c2nc3ccccc3[nH]2)C1` (stereo partly drawn) [Example 123, Nalpha-acetyl-N-[3-(1H-benzimidazol-2-yl)cyclohexyl]-D-phenylalanin-amide triflouroacetate] showed an inhibition at 2 µM of 83%.
For `Cc1ccc(C(=O)NC2CCCC(c3nc4ccccc4[nH]3)C2)c(Cl)n1` (stereo not drawn) [Example 124, N-[3-(1H-benzimidazol-2-yl)cyclohexyl]-2-chloro-6-methylnico-tinamide triflouroacetate], the inhibition at 2 µM was 62%.
For `O=C(C[C@H]1C[C@H]2C=C[C@@H]1C2)NC1CCCC(c2nc3ccccc3[nH]2)C1` (stereo partly drawn) [Example 125, N-[3-(1H-benzimidazol-2-yl)cyclohexyl]-2-[(1S,2S,4S)-bicyclo[2.2.1]hept-5-en-2-yl]acetamide triflouroacetate], the inhibition at 2 µM was 103%.
`C[S+]([O-])c1ccc(C(=O)NC2CCCC(c3nc4ccccc4[nH]3)C2)cc1` (stereo not drawn) [Example 126, N-[3-(1H-benzimidazol-2-yl)cyclophexyl]-4-(methylsulfinyl) benzamide triflouroacetate] gave an inhibition at 2 µM of 83%.
For `O=C(Cn1ccc2sccc2c1=O)NC1CCCC(c2nc3ccccc3[nH]2)C1` (stereo not drawn) [Example 127, N-[3-(1H-benzimidazol-2-yl)cyclohexyl]-2-(4-oxothieno[3,2-c]pyridin-5(4H)-yl)acetamide HCl], the inhibition at 2 µM was 100%.
`O=C(CCCC(=O)NC1CCCC(c2nc3ccccc3[nH]2)C1)Nc1ccccc1` (stereo not drawn) [Example 129, N-[3-(1H-benzimidazol-2-yl)cyclohexyl]-N′-phenylpentane diamide triflouroacetate] showed an inhibition at 2 µM of 95%.
Work on `Cn1cc(CN2CCCC2)cc1C(=O)NC1CCCC(c2nc3ccccc3[nH]2)C1` (stereo not drawn) [Example 130, N-[3-(1H-benzimidazol-2-yl)cyclohexyl]-1-methyl-4-(pyrrolidin-1-ylmethyl)-1H-pyrrole-2-carboxamide triflouroacetate] yielded an inhibition at 2 µM of 84%.
Work on `O=C(Cc1ccc(Cl)s1)NC1CCCC(c2nc3ccccc3[nH]2)C1` (stereo not drawn) [Example 131, N-[3-(1H-benzimidazol-2-yl)cyclohexyl]-2-(5-chloro-2-thienyl)acetamide triflouroacetate] yielded an inhibition at 2 µM of 101%.
`COc1ccc(C2(C(=O)NC3CCCC(c4nc5ccccc5[nH]4)C3)CC2)cc1` (stereo not drawn) [Example 132, N-[3-(1H-benzimidazol-2-yl)cyclohexyl]-1-(4-methoxyphenyl) cyclopropane-carboxamide triflouroacetate] was tested, and the inhibition at 2 µM was 78%.
For `COc1cccc2c1OCC(C(=O)NC1CCCC(c3nc4ccccc4[nH]3)C1)C2` (stereo not drawn) [Example 133, N-[3-(1H-benzimidazol-2-yl)cyclohexyl]-8-methoxychrom-ane-3-carboxamide triflouroacetate], the inhibition at 2 µM was 85%.
`O=C(NC1CCCC(c2nc3ccccc3[nH]2)C1)c1ccc(CN2CCOCC2)o1` (stereo not drawn) [Example 134, N-[3-(1H-benzimidazol-2-yl)cyclohexyl]-5-(morpholin-4-ylmethyl)-2-furamide triflouroacetate] gave an inhibition at 2 µM of 101%.
`O=C(NC1CCCC(c2nc3ccccc3[nH]2)C1)c1cc(-c2ccncc2)n[nH]1` (stereo not drawn) [Example 135, N-[3-(1H-benzimidazol-2-yl)cyclohexyl]-3-pyridin-4-yl-1H-pyrazole-5-carboxamide triflouroacetate] showed an inhibition at 2 µM of 100%.
For `Cc1n[nH]c(C)c1/C=C/C(=O)NC1CCCC(c2nc3ccccc3[nH]2)C1` (stereo not drawn) [Example 136, (2E)-N-[3-(1H-benzimidazol-2-yl)cyclohexyl]-3-(3,5-dimethyl-1H-pyrazol-4-yl)acrylamide triflouroacetate], the inhibition at 2 µM was 86%.
`O=C1CCc2cc(C(=O)NC3CCCC(c4nc5ccccc5[nH]4)C3)ccc2N1` (stereo not drawn) [Example 137, N-[3-(1H-benzimidazol-2-yl)cyclohexyl]-2-oxo-1,2,3,4-tetrahydroquino-line-6-carboxamide triflouroacetate] showed an inhibition at 2 µM of 108%.
Molecule `O=C(CN1C[C@@H]2CC[C@H]1C2)NC1CCCC(c2nc3ccccc3[nH]2)C1` (stereo partly drawn) [Example 138, 2-[(1S,4R)-2-azabicyclo[2.2.1]hept-2-yl]-N-[3-(1H-benzimidazol-2-yl)cyclohexyl]-acetamide triflouroacetate] has an inhibition at 2 µM of 100%.
`COc1cc(C(=O)NC2CCCC(c3nc4ccccc4[nH]3)C2)cc2c1OCCO2` (stereo not drawn) [Example 139, N-[3-(1H-benzimidazol-2-yl)cyclohexyl]-8-methoxy-2,3-dihydro-1,4-benzodioxine-6-carboxamide triflouroacetate] showed an inhibition at 2 µM of 105%.
In the case of `O=C(NC1CCCC(c2nc3ccccc3[nH]2)C1)c1ccc2cc[nH]c2c1` (stereo not drawn) [Example 140, N-[3-(1H-benzimidazol-2-yl)cyclohexyl]-1H-indole-6-carboxamide HCl], the inhibition at 2 µM is reported as 110%.
In the case of `CC(C(=O)NC1CCCC(c2nc3ccccc3[nH]2)C1)n1cccn1` (stereo not drawn) [Example 142, N-[3-(1H-benzimidazol-2-yl)cyclohexyl]-2-(1H-pyrazol-1-yl)propanamide triflouroacetate], the inhibition at 2 µM is reported as 69%.
`Cn1c(=O)[nH]c2cc(C(=O)NC3CCCC(c4nc5ccccc5[nH]4)C3)ccc21` (stereo not drawn) [Example 143, N-[3-(1H-benzimidazol-2-yl)cyclohexyl]-1-methyl-2-oxo-2,3-dihydro-1H-benzimidazole-5-carboxamide triflouroacetate] was tested, and the inhibition at 2 µM was 87%.
For `O=C(Cc1nc2cc(Cl)ccc2[nH]1)NC1CCCC(c2nc3ccccc3[nH]2)C1` (stereo not drawn) [Example 144, N-[3-(1H-benzimidazol-2-yl)cyclohexyl]-2-(5-chloro-1H-benzimidazol-2-yl)acetamide HCl], the inhibition at 2 µM was 105%.
With `CCn1nc(C(C)C)cc1C(=O)NC1CCCC(c2nc3ccccc3[nH]2)C1` (stereo not drawn) [Example 146, N-[3-(1H-benzimidazol-2-yl)cyclohexyl]-1-ethyl-3-isopropyl-1H-pyrazole-5-carboxamide triflouroacetate] the inhibition at 2 µM was 61%.
